In PubChem BioAssay AID248 (DTP/NCI, 2004):
“And” between values parts separate entries of the source, which are not always exact repeats. Equal entries are not always repeated. Inconclusive results and toxic doses are left out. Square brackets hold non-standard residues; d marks the D form. Peptide text beside a SMILES is read from it. * marks the point of attachment. ξ: configuration not given here. Cbz = O=C(OCc1ccccc1)*; ξNva = CCCC(N)C(=O)O

Test system: L1210 leukemia ip in BDF1 mice, survival T/C
Assay: NCI In Vivo Anticancer Drug Screen. Data for tumor model L1210 Leukemia (intraperitoneal) in B6D2F1 (BDF1) mice
Conditions: endpoint: mean survival time, higher = longer survival
How it was run: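 Ratio derived from survival: compound-dosed mice over vehicle-dosed mice, all bearing a transplantable tumor.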

[1] = dose: 100.0 mg/kg/injection, schedule: Q04DX003 (ip), vehicle: Klucel (hydroxypropylcellulose) (HPC)
[2] = dose: 200.0 mg/kg/injection, schedule: Q04DX003 (ip), vehicle: Klucel (hydroxypropylcellulose) (HPC)
[3] = dose: 400.0 mg/kg/injection, schedule: Q04DX003 (ip), vehicle: Klucel (hydroxypropylcellulose) (HPC)
[4] = dose: 200.0 mg/kg/injection, schedule: Q01DX001 (ip), vehicle: saline
[5] = dose: 400.0 mg/kg/injection, schedule: Q01DX001 (ip), vehicle: saline
[6] = dose: 100.0 mg/kg/injection, schedule: Q01DX001 (ip), vehicle: carboxymethylcellulose (CMC)
[7] = dose: 200.0 mg/kg/injection, schedule: Q01DX001 (ip), vehicle: carboxymethylcellulose (CMC)
[8] = dose: 400.0 mg/kg/injection, schedule: Q01DX001 (ip), vehicle: carboxymethylcellulose (CMC)
[9] = dose: 100.0 mg/kg/injection, schedule: Q01DX001 (ip), vehicle: saline
[10] = dose: 25.0 mg/kg/injection, schedule: Q01DX009 (ip), vehicle: Klucel (hydroxypropylcellulose) (HPC)
[11] = dose: 50.0 mg/kg/injection, schedule: Q01DX009 (ip), vehicle: Klucel (hydroxypropylcellulose) (HPC)
[12] = dose: 100.0 mg/kg/injection, schedule: Q04DX003 (ip), vehicle: saline with Tween-80
[13] = dose: 200.0 mg/kg/injection, schedule: Q04DX003 (ip), vehicle: saline with Tween-80

CC(C)(C)c1nc2cc(Cl)c(Cl)cc2[nH]1
T/C (dose: 75.0 mg/kg/injection, schedule: Q01DX001 (ip), vehicle: other): 102 % of control | T/C (dose: 75.0 mg/kg/injection, schedule: Q01DX009 (ip), vehicle: saline with Tween-80): 96 % of control | T/C (dose: 75.0 mg/kg/injection, schedule: Q04DX003 (ip), vehicle: saline with Tween-80): 103 % of control | T/C (dose: 150.0 mg/kg/injection, schedule: Q01DX001 (ip), vehicle: other): 96 % of control | T/C (dose: 150.0 mg/kg/injection, schedule: Q01DX009 (ip), vehicle: saline with Tween-80): 90 % of control | T/C (dose: 150.0 mg/kg/injection, schedule: Q04DX003 (ip), vehicle: saline with Tween-80): 110 % of control | T/C (dose: 300.0 mg/kg/injection, schedule: Q01DX001 (ip), vehicle: other): 109 % of control | T/C (dose: 300.0 mg/kg/injection, schedule: Q01DX009 (ip), vehicle: saline with Tween-80): 103 % of control | T/C (dose: 300.0 mg/kg/injection, schedule: Q04DX003 (ip), vehicle: saline with Tween-80): 107 % of control

CC(=O)Nc1c(Cl)cc2c(c1Cl)C(=O)c1ccccc1-2
T/C [1]: 105 % of control | T/C [2]: 100 % of control | T/C [3]: 103 % of control

COc1ccccc1C(=O)OCC(=O)c1ccc(-c2ccccc2)cc1
T/C [4]: 91 % of control | T/C [5]: 94 % of control

Nc1[nH]c(=S)[nH]c(=O)c1N=Nc1c(Br)cc(S(N)(=O)=O)cc1Br
T/C [6]: 94 % of control | T/C [7]: 100 % of control | T/C [8]: 103 % of control

Nc1ncc(CNc2ccc(C(=O)NC(CCC(=O)O)C(=O)O)cc2)c(N)n1 (stereo not drawn)
T/C [6]: 98 % of control | T/C [7]: 96 % of control | T/C [8]: 98 % of control

CC(C)c1ccc(/C=N/N=C(N)N)cc1
T/C (dose: 3.8 mg/kg/injection, schedule: Q01DX Z (ip), vehicle: other): 100 % of control | T/C (dose: 7.5 mg/kg/injection, schedule: Q01DX Z (ip), vehicle: other): 102 % of control | T/C (dose: 15.0 mg/kg/injection, schedule: Q01DX Z (ip), vehicle: other): 94 % of control

O=c1c(Cl)c(C(Cl)(Cl)Cl)[nH]c2c(Cl)cc(Cl)cc12
T/C (dose: 6.25 mg/kg/injection, schedule: Q01DX009 (ip), vehicle: other): 93 % of control | T/C (dose: 12.5 mg/kg/injection, schedule: Q01DX009 (ip), vehicle: other): 107 % of control

CCCCCC(C)N (stereo not drawn)
T/C (dose: 5.0 mg/kg/injection, schedule: Q01DX001 (ip), vehicle: saline): 101 % of control | T/C (dose: 10.0 mg/kg/injection, schedule: Q01DX001 (ip), vehicle: saline): 101 % of control | T/C (dose: 20.0 mg/kg/injection, schedule: Q01DX001 (ip), vehicle: saline): 95 % of control | T/C (dose: 40.0 mg/kg/injection, schedule: Q01DX001 (ip), vehicle: saline): 103 % of control | T/C (dose: 80.0 mg/kg/injection, schedule: Q01DX001 (ip), vehicle: saline): 101 % of control

CCOC(=O)CCCCC(N)=O
T/C [9]: 104 % of control | T/C [4]: 102 % of control | T/C [5]: 101 % of control

CC(C)=CCC/C(C)=C/CC(N)Cc1ccccc1 (stereo not drawn)
T/C (dose: 12.5 mg/kg/injection, schedule: Q01DX009 (ip), vehicle: Klucel (hydroxypropylcellulose) (HPC)): 94 % of control | T/C [10]: 97 % of control | T/C [11]: 92 % of control

COc1ccc(NC(=O)OCCN(CCOC(=O)Nc2ccc(OC)cc2)Cc2ccccc2)cc1
T/C [9]: 94 % of control | T/C [4]: 96 % of control | T/C [5]: 100 % of control

Oc1ccc(O)c2[nH]c(-c3ccccc3)cc12
T/C (dose: 6.25 mg/kg/injection, schedule: Q04DX002 (ip), vehicle: saline with Tween-80): 97 % of control | T/C (dose: 12.5 mg/kg/injection, schedule: Q04DX002 (ip), vehicle: saline with Tween-80): 97 % of control

Cc1cc(N(CCOS(C)(=O)=O)CCOS(C)(=O)=O)ccc1C=Nc1ccc(-c2csc(-c3ccc(Cl)cc3)n2)cc1
T/C [10]: 112 % of control | T/C [11]: 86 % of control

CC1(C)CCC(C#N)=C1N
T/C (dose: 12.5 mg/kg/injection, schedule: Q01DX009 (ip), vehicle: saline with Tween-80): 93 % of control | T/C (dose: 25.0 mg/kg/injection, schedule: Q01DX009 (ip), vehicle: saline with Tween-80): 105 % of control | T/C (dose: 50.0 mg/kg/injection, schedule: Q01DX009 (ip), vehicle: saline with Tween-80): 88 % of control

Cc1ccc(N=Nc2ccc(N(C)C)cc2)c2cccnc12
T/C [12]: 113 % of control | T/C [13]: 95 % of control

CC(=O)OC/C=C(\C)CCC=O
T/C (dose: 100.0 mg/kg/injection, schedule: Q04DX003 (ip), vehicle: water): 98 % of control | T/C (dose: 200.0 mg/kg/injection, schedule: Q04DX003 (ip), vehicle: water): 102 % of control | T/C (dose: 400.0 mg/kg/injection, schedule: Q04DX003 (ip), vehicle: water): 100 % of control

COC(=O)C(CC(C)C)NC(=O)C(Cc1ccccc1)NC(=O)OCc1ccccc1 (stereo not drawn) (Cbz-Phe-Leu-OMe; configuration not given here)
T/C [9]: 98 % of control | T/C [4]: 93 % of control | T/C [5]: 91 % of control

COC1OC2COC(c3ccccc3)OC2C(NC(C)=O)C1O (stereo not drawn)
T/C (dose: 100.0 mg/kg/injection, schedule: Q04DX002 (ip), vehicle: Klucel (hydroxypropylcellulose) (HPC)): 101 % of control | T/C (dose: 200.0 mg/kg/injection, schedule: Q04DX002 (ip), vehicle: Klucel (hydroxypropylcellulose) (HPC)): 111 % of control | T/C (dose: 400.0 mg/kg/injection, schedule: Q04DX002 (ip), vehicle: Klucel (hydroxypropylcellulose) (HPC)): 105 % of control

COC(=O)c1[nH]cnc1/N=N/N(C)CCO
T/C (dose: 88.0 mg/kg/injection, schedule: Q01DX001 (ip), vehicle: saline): 95 % of control | T/C [9]: 104 % of control | T/C (dose: 133.0 mg/kg/injection, schedule: Q01DX001 (ip), vehicle: saline): 97 % of control | T/C [4]: 101 % of control and 107 % of control | T/C (dose: 267.0 mg/kg/injection, schedule: Q01DX009 (ip), vehicle: saline): 109 % of control | T/C (dose: 300.0 mg/kg/injection, schedule: Q01DX001 (ip), vehicle: saline): 103 % of control | T/C [5]: 102 % of control | T/C (dose: 400.0 mg/kg/injection, schedule: Q01DX009 (ip), vehicle: saline): 100 % of control | T/C (dose: 600.0 mg/kg/injection, schedule: Q01DX009 (ip), vehicle: saline): 109 % of control | T/C (dose: 600.0 mg/kg/injection, schedule: Q01DX015 (ip), vehicle: saline): 157 % of control | T/C (dose: 900.0 mg/kg/injection, schedule: Q01DX009 (ip), vehicle: saline): 111 % of control

CC(C)=N/N=C(/C(=O)c1ccccc1)c1ccccc1
T/C [9]: 109 % of control | T/C [4]: 109 % of control | T/C [5]: 97 % of control

CN(C)/C=N/n1cnc2c(ncn2C2OC(CO)C(O)C2O)c1=O (stereo not drawn)
T/C (dose: 100.0 mg/kg/injection, schedule: Q01DX003 (ip), vehicle: saline): 102 % of control | T/C (dose: 200.0 mg/kg/injection, schedule: Q01DX003 (ip), vehicle: saline): 94 % of control

COc1cc(C=Nc2ccc(-c3nc(C)sc3C)cc2)ccc1N(CCOS(C)(=O)=O)CCOS(C)(=O)=O
T/C (dose: 50.0 mg/kg/injection, schedule: Q01DX009 (ip), vehicle: saline): 111 % of control | T/C [9]: 110 % of control | T/C (dose: 100.0 mg/kg/injection, schedule: Q01DX009 (ip), vehicle: saline): 121 % of control | T/C [4]: 105 % of control | T/C (dose: 200.0 mg/kg/injection, schedule: Q01DX009 (ip), vehicle: saline): 116 % of control

CC(=O)COc1cccc2ccccc12
T/C (dose: 100.0 mg/kg/injection, schedule: Q01DX009 (ip), vehicle: gum acacia): 100 % of control | T/C (dose: 200.0 mg/kg/injection, schedule: Q01DX009 (ip), vehicle: gum acacia): 99 % of control | T/C (dose: 400.0 mg/kg/injection, schedule: Q01DX009 (ip), vehicle: gum acacia): 97 % of control

O=C(O)CCC(=O)c1ccc(C2CCCC2)c2ccccc12
T/C [6]: 91 % of control | T/C [7]: 93 % of control | T/C [8]: 89 % of control

NS(=O)(=O)c1cc2c(cc1Cl)NC(CC1CCCC1)NS2(=O)=O (stereo not drawn)
T/C [9]: 105 % of control | T/C [4]: 100 % of control | T/C [5]: 107 % of control

CCCC(NC(=O)CNC(=O)CNC(=O)OCc1ccccc1)C(=O)OC (stereo not drawn) (Cbz-Gly-Gly-[ξNva]-OMe)
T/C [12]: 98 % of control | T/C [13]: 97 % of control | T/C (dose: 400.0 mg/kg/injection, schedule: Q04DX003 (ip), vehicle: saline with Tween-80): 103 % of control

O=C1CCC(c2ccccc2)=NN1
T/C [1]: 93 % of control | T/C [2]: 95 % of control | T/C [3]: 106 % of control
